Results: the NIST ThermoML archive (doi:10.1021/je2010209)
Numbers after ± are expanded uncertainties.

Tests used:
[1] = xn = mol fraction of the nth substance listed; settings: 101 kPa, Liquid, x1 = 1; for speed of sound: Sing-around technique in a fixed-path interferometer; for mass density: Vibrating tube method
[2] = 101 kPa, Liquid; for speed of sound: Sing-around technique in a fixed-path interferometer; for mass density: Vibrating tube method

| Structure (SMILES) | speed of sound ([2]; 288.15 K) | mass density ([2]; 288.15 K) | speed of sound ([2]; 293.15 K) | mass density ([2]; 293.15 K) | speed of sound ([2]; 298.15 K) | mass density ([2]; 298.15 K) | speed of sound ([2]; 303.15 K) | mass density ([2]; 303.15 K) | speed of sound ([2]; 308.15 K) | mass density ([2]; 308.15 K) | speed of sound ([2]; 313.15 K) | mass density ([2]; 313.15 K) | speed of sound ([2]; 318.15 K) | mass density ([2]; 318.15 K) | other results |
| --- | --- | --- | --- | --- | --- | --- | --- | --- | --- | --- | --- | --- | --- | --- | --- |
| CCCCn1cc[n+](C)c1.F[B-](F)(F)F [1-butyl-3-methylimidazolium tetrafluoroborate] + COCCO |  |  |  |  |  |  |  |  |  |  |  |  |  |  | speed of sound ([1]; 288.15 K): 1589 ± 5 m/s; mass density ([1]; 288.15 K): 1206.51 ± 1.3 kg/m3; speed of sound ([1]; 293.15 K): 1577 ± 5 m/s; mass density ([1]; 293.15 K): 1202.95 ± 1.3 kg/m3; speed of sound ([1]; 298.15 K): 1565 ± 5 m/s; mass density ([1]; 298.15 K): 1199.39 ± 1.3 kg/m3; speed of sound ([1]; 303.15 K): 1554 ± 5 m/s; mass density ([1]; 303.15 K): 1195.82 ± 1.3 kg/m3; speed of sound ([1]; 308.15 K): 1542 ± 5 m/s; mass density ([1]; 308.15 K): 1192.27 ± 1.3 kg/m3; speed of sound ([1]; 313.15 K): 1531 ± 5 m/s; mass density ([1]; 313.15 K): 1188.72 ± 1.2 kg/m3; speed of sound ([1]; 318.15 K): 1520 ± 5 m/s; mass density ([1]; 318.15 K): 1185.17 ± 1.2 kg/m3 |
| COCCOCCO [2-(2-methoxyethoxy)ethanol] | 1451 ± 5 m/s | 1024.6 ± 0.89 kg/m3 | 1434 ± 5 m/s | 1020.2 ± 0.88 kg/m3 | 1416 ± 5 m/s | 1015.79 ± 0.87 kg/m3 | 1399 ± 5 m/s | 1011.36 ± 0.86 kg/m3 | 1382 ± 5 m/s | 1006.92 ± 0.85 kg/m3 | 1366 ± 5 m/s | 1002.47 ± 0.84 kg/m3 | 1349 ± 5 m/s | 998.009 ± 0.83 kg/m3 |  |
| COCCOCCOCCO [2-[2-(2-methoxyethoxy)ethoxy]ethanol] | 1470 ± 5 m/s | 1050.1 ± 2.1 kg/m3 | 1452 ± 5 m/s | 1045.75 ± 2.1 kg/m3 | 1436 ± 5 m/s | 1041.32 ± 2.1 kg/m3 | 1421 ± 5 m/s | 1036.84 ± 2 kg/m3 | 1408 ± 5 m/s | 1032.27 ± 2 kg/m3 | 1393 ± 5 m/s | 1027.76 ± 2 kg/m3 | 1376 ± 5 m/s | 1023.3 ± 2 kg/m3 |  |
| COCCO [2-methoxyethan-1-ol] | 1380 ± 5 m/s | 969.794 ± 1.8 kg/m3 | 1367 ± 5 m/s | 965.063 ± 1.8 kg/m3 | 1351 ± 5 m/s | 960.447 ± 1.8 kg/m3 | 1337 ± 5 m/s | 955.825 ± 1.7 kg/m3 | 1321 ± 5 m/s | 951.214 ± 1.7 kg/m3 | 1304 ± 5 m/s | 946.562 ± 1.7 kg/m3 | 1287 ± 5 m/s | 941.864 ± 1.7 kg/m3 |  |
| CCCCn1cc[n+](C)c1.F[B-](F)(F)F [1-butyl-3-methylimidazolium tetrafluoroborate] | 1589 ± 5 m/s | 1206.51 ± 1.3 kg/m3 | 1577 ± 5 m/s | 1202.95 ± 1.3 kg/m3 | 1565 ± 5 m/s | 1199.39 ± 1.3 kg/m3 | 1554 ± 5 m/s | 1195.82 ± 1.3 kg/m3 | 1542 ± 5 m/s | 1192.27 ± 1.3 kg/m3 | 1531 ± 5 m/s | 1188.72 ± 1.2 kg/m3 | 1520 ± 5 m/s | 1185.17 ± 1.2 kg/m3 |  |
